Assays:
Rsk2 [1] = experiment: Labeling by biotin-1 / bodipy-1 in Xenopus egg cytosol and competition by unlabeled compound; type: binding; details: for Labeling of 90 kD protein by bodipy-1 after pretreatment: pretreatment with 1 μM
Description: To test whether compounds 1 and 2 (Formula IA, chloromethyl ketone and methyl enoate respectively) bind selectively and irreversibly to Rsk2, compound 1 was labeled with biotin. Xenopus egg cytosol was treated with 1 μM biotin-1. A major biotinylated 90 kD protein was detected by immunoblot analysis with streptavidin-HRP. Labeling of p90 with biotin-1 was abolished by pretreatment of the cytosol 1 μM of unlabeled 1. Thus, p90 is completely saturated by 1 at a concentration of 1 μM.
Labeling was abolished by pretreatment with 1 μM of 1 or 2.

Rsk = Rsk autophosphorylation of Ser381 in Swiss 3T3 cells (Western blot); type: cell-based; details: 5 μM, 1 hour, growth factors 10 min
Description: (§1) Enoate 2 blocks Rsk autophosphorylation of Ser381, which is catalyzed by its cysteine-containing C-terminal kinase domain. […] Swiss 3T3 cells were serum starved for 24 hours and treated with 5 μM enoate or 0.1% DMSO (control) for 1 hour. The cells were then stimulated with growth factors for 10 min. and lysed with 1×SDS-PAGE sample buffer. Proteins were separated by SDS-PAGE and transferred to nitrocellulose membranes for Western blot analysis. Phosphorylation-specific antibodies against Rsk and Erk were purchased from Cell Signaling. Antibodies against nonphosphorylated Rsk and Erk were purchased from Santa Cruz Biotech and Cell Signaling, respectively. (FIG. 4.)

Erk = Erk phosphorylation in Swiss 3T3 cells (Western blot); type: cell-based; details: 5 μM, 1 hour, growth factors 10 min
Description: as §1

animal carcinoma model = details: compared with reversible quinazoline inhibitors; cited from earlier work
V281C v-Src (v-Src-es1) [2] = experiment: Covalent labeling by biotin-cmk in NIH3T3 fibroblasts expressing v-Src-es1; type: cell-based; details: biotin-cmk 2 μM, whole cell lysates
Excerpt: (§2) To test whether cmk 4 could covalently label and inhibit Src kinases in vivo, we generated NIH3T3 fibroblast cell lines that stably overexpress either a wt v-Src allele or an electrophile-sensitive mutant, V281C v-Src (v-Src-es1). v-Src is constitutively active, and as a result of its expression in these cells, there is a substantial increase in phosphotyrosine levels. […] To test whether cmk 4 forms an irreversible, covalent bond with V281C v-Src, we conjugated biotin to the hydroxypropyl substituent. This point of attachment was chosen based on the model of cmk 4 bound to Hck in which the hydroxypropyl substituent is pointing out into solution.
(§3) NIH3T3 fibroblasts expressing either v-Src-es1 or v-Src were pretreated with increasing concentrations of cmk 4. Whole cells lysates were then prepared and treated with biotin-cmk (2 μM).

wt v-Src [3] = experiment: Covalent labeling by biotin-cmk in NIH3T3 fibroblasts expressing wt v-Src; type: cell-based; details: biotin-cmk 2 μM, whole cell lysates
Excerpt: as §2, §3

V281C v-Src (v-Src-es1) [4] = biological target: T1, V281C v-Src (v-Src-es1) (UniProt P00524, V281C, species not given); experiment: Covalent labeling by biotin-cmk in NIH3T3 fibroblasts expressing v-Src-es1; type: cell-based
T1 construct: other: pretreatment of intact cells; lysates treated with biotin; Labeling of v-Src-es1 by biotin-cmk after pretreatment; other: pretreatment of intact cells with 1 μM
Excerpt: as §2, §3

v-Src-es1 = experiment: Global phosphotyrosine levels in NIH3T3 cells expressing v-Src-es1; type: cell-based
Excerpt: (§4) We also investigated whether cmk 4 could block the function of v-Src-es1 in mammalian cells by monitoring global phosphotyrosine levels in cells expressing either wt v-Src or v-Src-es1.

wt v-Src [5] = experiment: Global phosphotyrosine levels in NIH3T3 cells expressing wt v-Src; type: cell-based
Excerpt: as §4

[6] = test system: NIH3T3 cells expressing v-Src-es1; experiment: Reversion of transformed morphology in cells expressing v-Src-es1; type: cell-based; details: 1 μM, 16 h
Excerpt: (§5) Overexpression of v-Src in NIH3T3 fibroblasts causes morphological transformation. Nontransformed NIH3T3 cells have a flat morphology, characterized by long bundles of filamentous actin (“stress fibers”) that can be visualized by fluorescence microscopy. In contrast, NIH3T3 cells overexpressing wt v-Src or v-Src-es1 have a disorganized actin cytoskeleton that results in a round morphology. […] Under the same conditions, cells expressing wt v-Src are not affected by cmk 4 and maintain a round morphology (FIG. 8A). The effects of cmk 4 on cell morphology were quantified by counting 100-200 cells under each treatment condition for both wt v-Src and v-Src-es1. Approximately 80% of the cells expressing v-Src-es1 regain a flattened morphology upon treatment with 1 μM cmk 4, whereas less than 2% of cells expressing wt v-Src have actin stress fibers (FIG. 8B).

[7] = test system: NIH3T3 cells expressing wt v-Src; experiment: Reversion of transformed morphology in cells expressing wt v-Src; type: cell-based; details: 1 μM, 16 h
Excerpt: as §5

Rsk2 CTD [8] = biological target: T2, Rsk2 CTD (Homo sapiens, UniProt P51812); experiment: Rsk2 CTD in vitro kinase assay, wild type; type: biochemical
T2 construct: We tested the halomethylketones against the Rsk2 CTD by adapting an in vitro kinase assay; made in house
Excerpt: (§6) We tested the halomethylketones against the Rsk2 CTD by adapting an in vitro kinase assay developed by Chrestensen and Sturgill, J, Biol. Chem. 277:27733 (2002).

Val285Cys Fyn = Val285Cys Fyn (Homo sapiens, UniProt P06241, V285C); experiment: Inactivation of engineered Val285Cys Fyn; type: biochemical
wt Fyn = wt Fyn (Homo sapiens, UniProt P06241); experiment: wt Fyn kinase activity in vitro; details: 30 nM
Rsk2 CTD Cys436Val = biological target: T3, Rsk2 CTD Cys436Val (Homo sapiens, UniProt P51812, C436V); experiment: Rsk2 CTD in vitro kinase assay, Cys436Val mutant; type: biochemical
T3 construct: we expressed and purified two CTD mutants, Cys436Val and Thr493Met; made in house
Excerpt: as §6

Rsk2 CTD Thr493Met = biological target: T4, Rsk2 CTD Thr493Met (Homo sapiens, UniProt P51812, T493M); experiment: Rsk2 CTD in vitro kinase assay, Thr493Met mutant; type: biochemical
T4 construct: we expressed and purified two CTD mutants, Cys436Val and Thr493Met; made in house
Excerpt: as §6

Rsk2 CTD [9] = biological target: Rsk2 CTD (Chlorocebus sabaeus, UniProt A0A0D9RPY4); experiment: EGF-stimulated Ser386 phosphorylation in COS-7 cells; type: cell-based; details: read-out: Reduction of Ser386 phosphorylation
Excerpt: (§7) The only known Rsk2 CTD substrate is an autophosphorylation site, Ser386, in the linker region connecting the NTD and CTD. Phosphorylation of Ser386 creates a docking site for another kinase, phosphoinositide-dependent kinase 1 (PDK1), which phosphorylates and activates the NTD. […] The signaling pathway between EGF and Erk1/2 involves at least three protein kinases (EGFR, Raf, and MEK), two of which (EGFR and Raf) have threonine gatekeepers and cysteines in their ATP binding pockets (albeit at different locations relative to Rsk2 Cys436).

Erk1/2 = experiment: EGF-stimulated Erk1/2 phosphorylation (Thr202, Tyr204) in COS-7 cells; type: cell-based; details: 10 μM
Excerpt: as §7

Rsk1 = biological target: T5, Rsk1 (Homo sapiens, UniProt Q15418); experiment: Suppression of labeling by biotinylated fmk in human epithelial cell lysate, Rsk1; type: binding; details: pretreatment with unlabeled compound
T5 construct: a crude lysate prepared from human epithelial cells; endogenous in cells
Excerpt: A major concern with any pharmacological agent is its selectivity, not only among related family members, but among all other coexpressed proteins. To determine the global kinetic selectivity of fmk 5, we added a biotinylated derivative to a crude lysate prepared from human epithelial cells. Only two proteins in the lysate were labeled. […] Affinity purified antibodies raised against a Rsk1 peptide specifically immunoprecipitated the lower band, whereas a Rsk2 monoclonal antibody was specific for the upper band. Both proteins remained in the supernatant when a control rabbit IgG was used.

Rsk2 [10] = biological target: Rsk2 (Homo sapiens, UniProt P51812); experiment: Suppression of labeling by biotinylated fmk in human epithelial cell lysate, Rsk2; type: binding; details: pretreatment with unlabeled compound
Excerpt: A major concern with any pharmacological agent is its selectivity, not only among related family members, but among all other coexpressed proteins.

Chemical stability = type: physicochemical; details: compared with cmk 4

COC(=O)/C=C/c1c(-c2ccc(C)cc2)c2c(N)ncnc2n1CCCO [Compound 2]
Labeling of 90 kD protein by bodipy-1 after pretreatment (Rsk2 [1]): abolished | Rsk autophosphorylation of Ser381 (Rsk): blocks | Erk phosphorylation (Erk): does not block

C=CC(=O)Nc1ccc2ncnc(Nc3cccc(Br)c3)c2c1 [PD 168393]
Efficacy in an animal carcinoma model (animal carcinoma model): far superior to reversible quinazoline inhibitors

Cc1ccc(-c2c(C(=O)CCl)n(CCCOC(=O)NCCCCNC(=O)CCCCC3SCC4NC(=O)NC43)c3ncnc(N)c23)cc1 (stereo not drawn) [biotin-cmk]
Covalent labeling of v-Src-es1 (V281C v-Src (v-Src-es1) [2]): covalently targeted v-Src-es1 | Covalent labeling of wt v-Src (wt v-Src [3]): absence of covalent labeling

Cc1ccc(-c2c(C(=O)CCl)n(CCCO)c3ncnc(N)c23)cc1 [cmk 4]
Concentration at which p90 is completely saturated (Rsk2 [1]; Xenopus egg cytosol): 1 µM | Labeling of p90 with biotin-1 after pretreatment with unlabeled compound (Rsk2 [1]; pretreatment of the cytosol 1 μM, streptavidin-HRP immunoblot): abolished | Labeling of 90 kD protein by bodipy-1 after pretreatment (Rsk2 [1]): abolished | Labeling of v-Src-es1 by biotin-cmk after pretreatment (V281C v-Src (v-Src-es1) [4]; pretreatment of intact cells with 1 μM): abolished | IC50 (V281C v-Src (v-Src-es1) [4]; read-out: IC50 for blocking labeling of v-Src-es1 by biotin-cmk, pretreatment of intact cells, lysates treated with biotin-cmk 2 μM): < 100 nM | Detectable phosphotyrosine in cells overexpressing v-Src-es1 (v-Src-es1; 1 μM): near-complete reduction | Tyrosine phosphorylation in cells overexpressing v-Src-es1 (v-Src-es1; increasing concentrations): dose-dependent decrease | Function of mutant v-Src in mammalian cells (v-Src-es1; summary statement): irreversibly blocked the function | Phosphotyrosine in cells overexpressing wt v-Src (wt v-Src [5]; 1 μM): no apparent effect | Effect on wt v-Src in mammalian cells (wt v-Src [5]; summary statement): no effect | Cells expressing v-Src-es1 that regain a flattened morphology [6]: Approximately 80% | Transformed morphology of cells expressing v-Src-es1 ([6]; FITC-phallodin staining): caused reversion of the transformed morphology | Cells expressing wt v-Src that have actin stress fibers [7]: less than 2% | Morphology of cells expressing wt v-Src [7]: not affected | Inhibition of kinase activity of Rsk2 CTD (Rsk2 CTD [8]): potently inhibited | Fold more potent than fmk 5 toward Val285Cys Fyn (Val285Cys Fyn): 100 fold | Inactivation of engineered Fyn with cysteine in place of Val285 (Val285Cys Fyn; 30 nM): rapidly inactivated | Time to inactivate Val285Cys Fyn (Val285Cys Fyn; 100 nM, 1 mM ATP): less than 5 min | Effect on wild-type (WT) Fyn (wt Fyn): no effect

Cc1ccc(-c2c(C(=O)CF)n(CCCO)c3ncnc(N)c23)cc1 [fmk 5]
Inhibition of kinase activity of Rsk2 CTD (Rsk2 CTD [8]): potently inhibited | Half-time of inactivation of Rsk2 CTD (Rsk2 CTD [8]; 1 μM, 1 mM ATP): less than 10 min | Inhibition and covalent modification of Cys436Val mutant (Rsk2 CTD Cys436Val): resistant to inhibition and covalent modification | Inhibition and covalent modification of Thr493Met mutant (Rsk2 CTD Thr493Met): resistant to inhibition and covalent modification | inhibition at 3 µM (Rsk2 CTD [9]): 95% | EGF-stimulated phosphorylation of Erk1/2 Thr202 and Tyr204 (Erk1/2): no effect | Concentration for complete saturation of Rsk1 (Rsk1): 0.3 µM | Concentration for complete saturation of Rsk2 (Rsk2 [10]): 1 µM | Chemical stability (Chemical stability): greater chemical stability

Cc1ccc(-c2cn(CCCO)c3ncnc(N)c23)cc1 [scaffold A]
Fold weaker than fmk 5 toward WT Rsk2 (Rsk2 CTD [8]): 80 fold | IC50 (Rsk2 CTD [8]; Rsk2 CTD WT, read-out: IC50 values, WT): 1200 ± 80 nM | Potency relative to fmk 5 against the Cys436Val mutant (Rsk2 CTD Cys436Val): much more potent than fmk 5 | IC50 (Rsk2 CTD Cys436Val; Rsk2 CTD C436V): 430 ± 140 nM | IC50 (Rsk2 CTD Thr493Met; Rsk2 CTD mutant, read-out: IC50 values, T439M): > 30000 nM

From US8748601B2, “Selective serine/threonine kinase inhibitors” (The Regents of the University of California, priority 2003, dated 2014)
